One data set concerns male mice. In words: ICV or IT administration in male mice monitored in TSE metabolic cages. It counts as in vivo. The source says:
As described herein, compound 2 (c[Pro-His-DPhe-Arg-Trp-Dap-Ala-DPro] (SEQ ID NO:4)) has been administered in male mice. This compound has been administered via a cannula directly into the brain (ICV administration) or through an injection into the spinal cord (IT administration), at three different doses each administration route (2 nmol, 5 nmol, and 10 nmol). After compound administration, the mice were monitored in TSE metabolic cages, which record food intake, water intake, ambulatory activity (how many times a mouse breaks a light beam, which can give an indication of toxicity), respiratory-exchange ratio (RER, ratio between amount of CO2 produced in metabolism and O2 consumed, giving an indication if fat [RER value closer to 0.7] or carbohydrates [RER value closer to 1] is the energy source being utilized), and energy expenditure.

In data set [1] the target is T1, mMC5R (Mus musculus, UniProt P41149). In words: cAMP AlphaScreen agonist assay, HEK293 cells stably expressing mouse MC5R.
T1 sequence (P41149 whole entry): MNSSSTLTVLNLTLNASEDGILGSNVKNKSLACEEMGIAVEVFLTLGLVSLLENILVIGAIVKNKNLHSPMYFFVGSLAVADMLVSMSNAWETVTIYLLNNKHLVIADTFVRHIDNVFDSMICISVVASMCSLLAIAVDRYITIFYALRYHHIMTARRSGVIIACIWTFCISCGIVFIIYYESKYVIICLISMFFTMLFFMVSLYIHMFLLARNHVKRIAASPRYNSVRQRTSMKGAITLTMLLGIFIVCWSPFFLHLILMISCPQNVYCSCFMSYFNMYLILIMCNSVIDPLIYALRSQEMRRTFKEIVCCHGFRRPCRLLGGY
Data set [2] addresses T2, mMC3R (Mus musculus, UniProt P33033). In words: cAMP AlphaScreen agonist assay, HEK293 cells stably expressing mouse MC3R. To be noted: for agonist activity/efficacy at mMC3R (in words): concentrations up to 100 μM. A general note: Alpha assays give light when donor and acceptor beads are brought close together.
Data set [3] addresses T3, mMC1R (Mus musculus, UniProt Q01727). In words: cAMP AlphaScreen agonist assay, HEK293 cells stably expressing mouse MC1R. Particulars: for pEC50: read-out: mMC1R EC50, agonist, cAMP.
Data set [4] deals with T4, mMC4R (Mus musculus, UniProt P56450). In words: cAMP AlphaScreen agonist assay, HEK293 cells stably expressing mouse MC4R.
T4 sequence (P56450 whole entry): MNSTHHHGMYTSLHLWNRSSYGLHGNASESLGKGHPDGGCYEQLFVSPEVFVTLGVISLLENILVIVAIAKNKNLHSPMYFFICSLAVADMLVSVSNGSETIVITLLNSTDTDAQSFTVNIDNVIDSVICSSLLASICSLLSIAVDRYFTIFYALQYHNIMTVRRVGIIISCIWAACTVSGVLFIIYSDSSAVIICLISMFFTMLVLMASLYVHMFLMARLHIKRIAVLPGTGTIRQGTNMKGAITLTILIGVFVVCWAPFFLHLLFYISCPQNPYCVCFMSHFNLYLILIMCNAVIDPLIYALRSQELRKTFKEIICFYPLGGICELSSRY
For data set [5], the target named is T4, mMC4R. Set-up: expressed in transfected cells; host or cells: HEK293. To be noted: AGRP intrinsic potency; cited from earlier work.
Data set [6] deals with T2, mMC3R. More on the design: expressed in transfected cells; host or cells: HEK293. Particulars: literature value; read-out: reported agonist potency at the mMC3R; cited from earlier work.
Data set [7] deals with T1, mMC5R. Set-up: expressed in transfected cells; host or cells: HEK293. Particulars: literature value; read-out: reported agonist potency at the mMC5R; cited from earlier work.
The target of data set [8] is T3, mMC1R. More on the design: expressed in transfected cells; host or cells: HEK293. Particulars: literature value; read-out: reported agonist potency at the mMC1R; cited from earlier work.
In data set [9] the target is T4, mMC4R. More on the design: expressed in transfected cells; host or cells: HEK293. Particulars: cited from earlier work; for pEC50: literature value, read-out: reported agonist potency at the mMC4R; for reported selectivity for the mMC4R over the mMC3R: literature chimeric ligands.
Setting [10] is: compound versus vehicle treated animals.

pEC50: −log10 of the molar value. Several values for one entry are separate records, joined by “and”; a condition that tells them apart may be missing. Identical values can stand only once. Entries after “also recorded” stand apart in the source; their conditions may differ. Like-named read-outs stand apart in the source and are kept apart here. Non-standard residues stand in square brackets, D forms with d. Residues, ends and D or L forms follow the SMILES beside them. No end group written: not given here. Dap = NC[C@H](N)C(=O)O

T3 sequence (Q01727 whole entry): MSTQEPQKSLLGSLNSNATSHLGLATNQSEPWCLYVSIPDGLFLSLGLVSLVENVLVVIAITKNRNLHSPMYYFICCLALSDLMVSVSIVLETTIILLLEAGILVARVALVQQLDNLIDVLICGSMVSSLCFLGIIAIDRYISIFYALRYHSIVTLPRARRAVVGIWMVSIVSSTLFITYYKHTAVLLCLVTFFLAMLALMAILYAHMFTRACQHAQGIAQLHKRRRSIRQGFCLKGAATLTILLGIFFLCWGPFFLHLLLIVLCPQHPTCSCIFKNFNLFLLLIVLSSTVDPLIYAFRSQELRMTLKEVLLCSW
T2 sequence (P33033 whole entry): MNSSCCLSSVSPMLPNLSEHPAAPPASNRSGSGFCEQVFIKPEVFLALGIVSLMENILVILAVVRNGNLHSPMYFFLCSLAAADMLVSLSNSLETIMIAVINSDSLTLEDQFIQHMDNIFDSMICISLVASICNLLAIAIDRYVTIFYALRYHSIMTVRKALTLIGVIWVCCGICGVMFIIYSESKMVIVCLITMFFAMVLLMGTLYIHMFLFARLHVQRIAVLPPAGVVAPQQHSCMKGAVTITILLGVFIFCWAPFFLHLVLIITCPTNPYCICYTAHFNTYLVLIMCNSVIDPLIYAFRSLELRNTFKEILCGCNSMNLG

For `C[C@@H]1NC(=O)[C@H](CN)NC(=O)[C@H](Cc2c[nH]c3ccccc23)NC(=O)[C@H](CCCNC(=N)N)NC(=O)[C@@H](Cc2ccccc2)NC(=O)[C@H](Cc2c[nH]cn2)NC(=O)[C@@H]2CCCN2C(=O)[C@H]2CCCN2C1=O` [MDE6-5-2c, c[Pro-His-DPhe-Arg-Trp-Dap-Ala-DPro]] (cyclo(H[dF]RW[Dap]A[dP]P)), the “cumulative food intake following ICV administration, 10 nmol” value in the data set with male mice (ICV, 10 nmol, 72 h) is reported as “decreased food intake through 72 h”. Moreover, the “Respiratory Exchange Ratio (RER) effect, ICV 10 nmol” value in the data set with male mice (ICV, 10 nmol, first 24 h, versus lower doses) is “more robust”. Also, the “cumulative food intake following ICV administration” value in the data set on male mice (ICV, 2, 5, 10 nmol, first 24 h, dose response) is reported as “further decreased food intake”. Also, the “Respiratory Exchange Ratio (RER), ICV 2 and 5 nmol” value with male mice (ICV, 2 and 5 nmol, first 24 h) was “decreased RER compared to vehicle control”. Further, the “Respiratory Exchange Ratio (RER) effect, IT administration” value with male mice (IT) is reported as “more modest effect”. For the same compound, the “cumulative food intake following IT administration” value in the data set on male mice (IT, 2, 5, 10 nmol, not dose-responsive) is reported as “decreased food intake was observed”. In the data set on male mice (setting [10]), the energy expenditure entry is “not different” and the water intake entry was “not different”. The “duration of effects on RER following a single dose” value in the data set with male mice (single dose, all cases) is on record as 24 h.

Turning to `C[C@@H]1NC(=O)[C@H](CN)NC(=O)[C@H](Cc2c[nH]c3ccccc23)NC(=O)[C@H](CCCNC(=N)N)NC(=O)[C@@H](Cc2ccccc2)NC(=O)[C@H](Cc2cnc[nH]2)NC(=O)[C@@H]2CCCN2C(=O)[C@H]2CCCN2C1=O` [MDE6-5-2c, c[Pro-His-DPhe-Arg-Trp-Dap-Ala-DPro]] (cyclo(H[dF]RW[Dap]A[dP]P)), the pEC50 at mMC5R [1] (read-out: mMC5R EC50, agonist, cAMP) is 9.52; on mMC3R [2] (read-out: mMC3R EC50, agonist, cAMP) it was 7.40; at mMC1R [3], 8.96; on mMC4R [4] (read-out: mMC4R EC50, agonist, cAMP) it was 8.80. Also, the ambulatory activity entry with male mice (setting [10]) was “not different”. Moreover, the “selectivity for the mMC4R over the mMC3R” value at mMC4R [4] (agonist potency) is 25 fold.

In the case of `N=C(N)NCCC[C@@H]1NC(=O)[C@@H](Cc2ccccc2)NC(=O)[C@@H]2CCCN2C(=O)[C@H]2CCCN2C(=O)[C@H](CN)NC(=O)[C@H](Cc2c[nH]c3ccccc23)NC1=O` [MDE6-12-1c, c[Pro-DPhe-Arg-Trp-Dap-DPro]] (cyclo(P[dF]RW[Dap][dP])), at mMC5R [1] (concentrations up to 100 μM), the “agonist activity/efficacy at mMC5R (in words)” value is “no observable activity; also recorded: unable to stimulate; also recorded: no agonist activity”. In addition, the “agonist activity/efficacy at mMC3R (in words)” value at mMC3R [2] was “no observable activity; also recorded: did not possess agonist activity; also recorded: no agonist activity”. In addition, the “mMC1R partial agonist, percent maximal NDP stimulation” value on mMC1R [3] (PA, relative to maximal NDP-MSH response) was “PA, 75%”. Moreover, on mMC1R [3] (over mMC3R, mMC4R, mMC5R), the “selectivity for the mMC1R over the other receptors” value was greater than 500 fold. The pEC50 at mMC1R [3] was 6.96. The “mMC4R percent maximal stimulatory response at 100 μM” value on mMC4R [4] (100 μM, no EC50 determinable, relative to NDP-MSH) is on record as 35%. In addition, the “agonist activity/efficacy at mMC4R (in words)” value on mMC4R [4] (concentrations up to 100 μM) is reported as “stimulated a fraction of the maximal NDP-MSH response; also recorded: partially stimulated”.

For the compound `N=C(N)NCCC[C@@H]1NC(=O)[C@@H](Cc2ccccc2)NC(=O)[C@H](Cc2c[nH]cn2)NC(=O)[C@@H]2CCCN2C(=O)[C@H]2CCCN2C(=O)[C@H](CN)NC(=O)[C@H](Cc2c[nH]c3ccccc23)NC1=O` [MDE6-12-2c, c[Pro-His-DPhe-Arg-Trp-Dap-DPro]] (cyclo(PH[dF]RW[Dap][dP])), the “decreased agonist potency at mMC5R relative to MDE6-5-2c” value on mMC5R [1] (relative to MDE6-5-2c) is 1,100 fold. Besides, the “agonist activity/efficacy at mMC3R (in words)” value on mMC3R [2] is “partially stimulated”. Moreover, on mMC1R [3] (relative to MDE6-5-2c), the “decreased agonist potency at mMC1R relative to MDE6-5-2c” value is reported as 418 fold. The “decreased agonist potency at mMC4R relative to MDE6-5-2c” value at mMC4R [4] (relative to MDE6-5-2c) was found to be 593 fold.

For “AGRP: agouti-related protein, naturally occurring melanocortin antagonist (SSRRCVRLHESCLGQQVPCCDPCATCYCRFFNAFCYCRKLGTAMNPCSRT; ends and bridges not checked; cysteine pairing not given here; UniProt O00253 83-132, looked up)”, the “lower potency at the mMC3R versus the mMC4R” value with mMC4R [5] was roughly 10 fold.

For Ac-mini-(His-DPhe-Arg-Trp)hAGRP-NH2, the pEC50 on mMC3R [6] is 7.52; at mMC5R [7], 9.22 and 9.25; at mMC1R [8], 9.80; at mMC4R [9] it was 8.85.

Consider “Tyr-c[Asp-His-DPhe-Arg-Trp-Asn-Ala-Phe-Dap]-Tyr-NH2 (FRWNAF; Tyr-Asp-His, Dap lactam, Tyr-NH2; printed: Phe-Arg-Trp-Asn-Ala-Phe-) [previously reported lactam bridged AGRP/NDP-MSH chimeric ligand]”, for which the pEC50 with mMC3R [6] was 9.00; with mMC5R [7], 9.30; in the data set with mMC1R [8] it was 9.70; with mMC4R [9], 9.70. In addition, the “reported selectivity for the mMC4R over the mMC3R” value with mMC4R [9] is reported as 5 fold.

“Tyr-c[Cys-His-DPhe-Arg-Trp-Asn-Ala-Phe-Cys]-Tyr-NH2 (FRWNAFC; not fully specified; Tyr-Cys-His, disulfide, Tyr-NH2; printed: Phe-Arg-Trp-Asn-Ala-Phe-Cys) [previously reported disulfide bridged AGRP/NDP-MSH chimeric ligand]”: the pEC50 with mMC3R [6] was 8.70; in the data set with mMC5R [7], 8.70; with mMC1R [8] it was 9.46; with mMC4R [9], 9.52. For the same compound, the “reported selectivity for the mMC4R over the mMC3R” value with mMC4R [9] was 7 fold.

(Values after patent US11124541B2, “Chimeric melanocortin ligands and methods of use thereof” (REGENTS OF THE UNIVERSITY OF MINNESOTA, priority 2016, dated 2021).)
